According to patent US20100278733A1, “COMPOSITION FOR DIAGNOSIS OF AMYLOID-RELATED DISEASE” (priority 2007, published 2010):
Values belong to the compound of their own block, whether it stands above or below them.

Key:
Aβ(1-42) aggregate [1] = molecular target: T1, Aβ(1-42) aggregate (Homo sapiens, UniProt P05067); assay: In-vitro binding inhibition experiment using Aβ(1-42) aggregate (Example 1); settings: compound numbers of Example 1
T1 construct: Amyloid β protein (Human, 1-42) [TFA form] was purchased from Peptide Institute, Inc; purchased Peptide Institute, Inc
T1 sequence (P05067 672-713 limits assumed): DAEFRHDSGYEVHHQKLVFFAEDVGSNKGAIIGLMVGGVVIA
Description: (§1) Amyloid β protein (Human, 1-42) [TFA form] was purchased from Peptide Institute, Inc., and special grade reagents were used as other reagents. ^1H-NMR was measured using Varian Gemini 300 and tetramethylsilane as an internal standard substance.
The Aβ(1-42) aggregate was dissolved in a buffer containing 10 mM sodium phosphate and 1 mM EDTA (pH 7.4) at a concentration of 0.5 mg/mL, and the mixture was incubated at 37° C. for 36 to 42 h. The binding inhibition experiment was performed using 12×75-mm borosilicate glass tubes. 850 μL of 10% ethanol solution, 50 μL of an Aβ-binding substance ([^125I]4-dimethylamino-4′ iodochalcone) (10% aqueous ethanol), 50 μL (57 nM) of Aβ(1-42) aggregate solution, and 50 μL of 10% aqueous ethanol each containing Compounds 1 and 4 at various concentrations (0.003 to 781 nM) were mixed, and the mixture was allowed to stand at room temperature for 3 h. Further, nonspecific binding was determined using 4-dimethylamino-4′-iodochalcone (400 nM), a nonradioactive compound. Aβ aggregate-bound chalcone derivatives and nonbound chalcone derivatives were separated with a Brandel M-24R cell harvester using a Whatman GF/B filter. The radioactivities of substances remaining on the filter after filtration were measured with a γ counter. […]

Aβ(1-42) aggregate [2] = molecular target: T1, Aβ(1-42) aggregate; assay: In-vitro binding inhibition experiment using Aβ(1-42) aggregate (Reference Example 2); settings: ligand [^125I]4-dimethylamino-4′-iodochalcone; compound numbers of Reference Example 2; read-out: Inhibition constant (Ki, nM) (mean ± SE)
Description: as §1
The Aβ(1-42) aggregate was dissolved in a buffer containing 10 mM sodium phosphate and 1 mM EDTA (pH 7.4) at a concentration of 0.5 mg/mL, and the mixture was incubated at 37° C. for 36 to 42 h. The binding inhibition experiment was performed using 12×75-mm borosilicate glass tubes. 850 μL of 10% ethanol solution, 50 μL of [^125I]4-dimethylamino-4′-iodochalcone (in 10% aqueous ethanol), 50 μL (29 nM) of an Aβ(1-42) aggregate solution, and 50 μL of a solution of fluorine-containing chalcone derivatives in 10% aqueous ethanol prepared at various concentrations were mixed, and the mixture was allowed to stand at room temperature for 3 h. Further, nonspecific binding was calculated using 4-dimethylamino-4′iodochalcone (400 nM), a nonradioactive compound. Aβ aggregate-bound chalcone derivatives and nonbound chalcone derivatives were separated with a Brandel M-24R cell harvester using Whatman GF/B filters. Radioactivities of substances remaining on the filter were measured with a γ counter. The 50% inhibitory concentrations were calculated using Graph Pad Prism (graph pad software), and inhibition constants (Ki values) were calculated by Cheng-Prusoff equation, Ki=IC50/(1+[L]/Kd). In this equation, the concentration of [^125I]4-dimethylamino-4′-iodochalcone used in the experiment was used for [L], and the dissociation constant of [^125I]4-dimethylamino-4′-iodochalcone against the Aβ(1-42) aggregate was used for Kd.

[3] = In-vivo radioactivity distribution experiment in normal mice (Reference Example 2); settings: Reference Example 2 numbering; for Radioactivity concentration in the brain of mice: intravenous
Description: Labeled compounds, [^11C]Compounds 23 and 7, were diluted with physiological saline containing 10% ethanol. 100 μL of each of the labeled compounds was intravenously infused to five 5-week-old male ddY mice per group, the animals were decapitated at 2, 10, 30, or 60 min, blood was collected, and then weights and radioactivities thereof were measured.

Aβ(1-42) aggregate [4] = molecular target: T1, Aβ(1-42) aggregate; assay: Examination of binding site by binding inhibition experiment using Aβ(1-42) aggregate (Example 2); settings: in words, FIG. 10
Description: Aβ(1-42) was dissolved in 10 mM phosphate buffer containing 1 mM EDTA (pH 7.4) at a concentration of 0.25 mg/mL, and the mixture was incubated at 37° C. for 42 h to prepare an Aβ(1-42) aggregate.
[…] of 10% EtOH solution, […] of [^125I]CL-NMe2 solution, […] of a solution of congo red, thioflavine T, or compound 14 at various concentrations (0 to 20 mM) were mixed, […] of an Aβ(1-42) aggregate solution was finally added, and the mixture was allowed to stand at room temperature for 3 h. Aβ(1-42) aggregate-bound compounds and nonbound compounds were separated with a Brandel M-24R cell harvester using a Whatman GF/B filter. Radioactivities remaining on the filter after filtration were measured with a γ-counter, and inhibition curves were created using Graph Pad Prism 4.0 to calculate inhibition constants.

binding property to the amyloid aggregate (Aβ(1-42) aggregate [1]; in words): very strong binding property
Ki (Aβ(1-42) aggregate [1]; ligand [^125I]4-dimethylamino-4′-iodochalcone, mean and standard deviation of three experiments, read-out: Inhibition constants (Ki) for binding to Aβ(1-42) aggregate): 5.2 ± 0.7 nM
SMILES: CN(C)c1ccc(/C=C/C(=O)c2ccc(I)s2)cc1 [Compound 1 in Example 1, (E)-3-(4-(dimethylamino)phenyl)-1-(5-iodothiophen-2-yl)prop-2-en-1-one]

Ki (Aβ(1-42) aggregate [2]): 29 ± 2 nM
SMILES: CN(C)c1ccc(/C=C/C(=O)c2ccc(OCCF)cc2)cc1 [Compound 3 in Reference Example 2, (E)-1-(4-(2-fluoroethoxy)phenyl)-3-(4-(dimethylamino)phenyl)prop-2-en-1-one]

Ki (Aβ(1-42) aggregate [2]): 19 ± 1 nM
SMILES: CN(C)c1ccc(/C=C/C(=O)c2ccc(OCCOCCF)cc2)cc1 [Compound 5 in Reference Example 2, (E)-1-(4-(2-(2-fluoroethoxy)ethoxy)phenyl)-3-(4-(dimethylamino)phenyl)prop-2-en-1-one]

Ki (Aβ(1-42) aggregate [2]): 553 ± 22 nM
SMILES: Nc1ccc(/C=C/C(=O)c2ccc(OCCF)cc2)cc1 [Compound 11 in Reference Example 2, (E)-1-(4-(2-fluoroethoxy)phenyl)-3-(4-aminophenyl)prop-2-en-1-one]

Ki (Aβ(1-42) aggregate [2]): 1000 ± 29 nM
SMILES: Nc1ccc(/C=C/C(=O)c2ccc(OCCOCCF)cc2)cc1 [Compound 16 in Reference Example 2, (E)-1-(4-(2-(2-fluoroethoxy)ethoxy)phenyl)-3-(4-aminophenyl)prop-2-en-1-one]

Ki (Aβ(1-42) aggregate [2]): 187 ± 3 nM
SMILES: CNc1ccc(/C=C/C(=O)c2ccc(OCCOCCF)cc2)cc1 [Compound 17 in Reference Example 2, (E)-1-(4-(2-(2-fluoroethoxy)ethoxy)phenyl)-3-(4-(methylamino)phenyl)prop-2-en-1-one]

ratio of brain radioactivity at 60 min to that at 2 min after administration [3]: 28.3%
ratio of the radioactivity remaining in the brain at 30 min after administration to that at 2 min after administration [3]: 28.3%
Radioactivity concentration in the brain of mice ([3]; 2 min after administration, listed as [^11C] 23): 3.68 ± 0.35 % ID/g
Radioactivity concentration in the brain of mice ([3]; 2 min after administration, listed as [^11C]Compound 23): 3.68 % ID/g
Radioactivity concentration in the brain of mice ([3]; 10 min after administration): 1.53 ± 0.14 % ID/g
Radioactivity concentration in the brain of mice ([3]; 30 min after administration): 1.04 ± 0.15 % ID/g
Radioactivity concentration in the brain of mice ([3]; 60 min after administration, listed as [^11C] 23): 1.04 ± 0.20 % ID/g
Radioactivity concentration in the brain of mice ([3]; 60 min after administration, listed as [^11C]Compound 23): 1.04 % ID/g
SMILES: CN(C)c1ccc(/C=C/C(=O)c2ccc(F)cc2)cc1 [Compound 23 in Reference Example 2, (E)-3-(4-(dimethylamino)phenyl)-1-(4-fluorophenyl) prop-en-1-one]

SMILES: Nc1c(/N=N/c2ccc(-c3ccc(/N=N/c4cc(S(=O)(=O)O)c5ccccc5c4N)cc3)cc2)cc(S(=O)(=O)O)c2ccccc12 [congo red]
inhibition of binding of [^125I]CL-NMe2 to the Aβ(1-42) aggregate (Aβ(1-42) aggregate [4]): did not inhibit binding of [^125I]CL-NMe2 to the Aβ(1-42) aggregate to a large extent

SMILES: Cc1ccc2c(c1)sc(-c1ccc(N(C)C)cc1)[n+]2C.[Cl-] [thioflavine T]
inhibition of binding of [^125I]CL-NMe2 to the Aβ(1-42) aggregate (Aβ(1-42) aggregate [4]): did not inhibit binding of [^125I]CL-NMe2 to the Aβ(1-42) aggregate to a large extent
